Test results reported in patent US8153678B2, “Process for preparing A 3-pyrrole substituted 2-indolinone malate salt” (Medichem, S.A., priority 2008, dated 2012).

Assay: solubility of sunitinib base (applicants' observation)
Type: physicochemical
Details: qualitative; dissolution in solvents for salt preparation
Source text: In this regard, the low solubility of sunitinib base requires large amounts of solvents or mixture of solvents and/or the use of particular harsh conditions aimed to increase the solubility of sunitinib base and/or reduce long reaction times, which represents a significant drawback, especially for industrial scale-up. Further, solid sunitinib base is difficult to handle since it is a very fine powder which is difficult to filter and isolate.

solubility profile: low solubility profile
Structure (SMILES): CCN(CC)CCNC(=O)c1c(C)[nH]c(/C=C2\C(=O)Nc3ccc(F)cc32)c1C [sunitinib base, N-[2-(diethylamino)ethyl]-5-[(Z)-(5-fluoro-1,2-dihydro-2-oxo-3H-indol-3-yliden)methyl]-2,4-dimethyl-1H-pyrrole-3-carboxamide]
